Values joined by “and” are separate entries in the source; they are usually repeats but may differ in a detail not shown here. Equal entries are not always repeated. Where two headings read alike, the source gives them in different places.
Experiments:
[1] = tested on: green peach aphid (Myzus persicae); assay: Contrasting example: Myzus persicae spray test (MYZUPE); type: in vivo; conditions: MYZUPE, 100 g ai/ha; for pest or weed control at 100 g/ha: Myzus persicae, 144 h, read-out: % efficacy
Experimental: Myzus persicae—Spray Test (MYZUPE)
(§1) Solvents: 78.0 parts by weight of acetone • • 1.5 parts by weight of dimethylformamide
(§2) Emulsifier: alkylaryl polyglycol ether
(§3) To produce a suitable active compound preparation, 1 part by weight of active compound is dissolved using the stated parts by weight of solvent and made up with water containing an emulsifier concentration of 1000 ppm until the desired concentration is attained. To produce further test concentrations, the preparation is diluted with emulsifier-containing water.
Discs of Chinese cabbage leaves (Brassica pekinensis), infested by all stages of the green peach aphid (Myzus persicae) are sprayed with an active compound preparation of the desired concentration.
After the desired period of time, the efficacy in % is determined. 100% means that all aphids were killed; 0% means that no aphids were killed.

[2] = tested on: greenhouse red spider mite (Tetranychus urticae); assay: Contrasting example: Tetranychus urticae spray test, OP resistant (TETRUR); type: in vivo; conditions: 500 g ai/ha, 6 dat
Experimental: Tetranychus urticae—Spray Test; OP Resistant (TETRUR)
as §1, §2, §3
Discs of bean leaves (Phaseolus vulgaris), infested by all stages of the greenhouse red spider mite (Tetranychus urticae) are sprayed with an active compound preparation of the desired concentration.
After the desired period of time, the efficacy in % is determined. 100% means that all spider mites were killed; 0% means that no spider mites were killed.

[3] = tested on: larvae of the mustard beetle (Phaedon cochleariae); assay: Contrasting example: Phaedon cochleariae spray test (PHAECO); type: in vivo; conditions: 500 g ai/ha, 7 dat
Experimental: Phaedon cochleariae—Spray Test (PHAECO)
as §1, §2, §3
After the desired period of time, the efficacy in % is determined. 100% means that all beetle larvae were killed; 0% means that no beetle larvae were killed.

[4] = log P by HPLC on reversed-phase C18 columns (OECD Guideline 117); type: physicochemical; conditions: for logP[a]: method [a]; for logP[b]: method [b]; for chromatographic logP: reversed-phase C18 HPLC column
How it was run: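 Reversed-phase C18 HPLC per OECD 117, LC-MS with a linear 10% to 95% acetonitrile gradient. Acidic method at pH 2.7 with 0.1% formic acid; neutral method at pH 7.8 with 0.001 M ammonium hydrogencarbonate.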

[5] = tested on: green peach aphid (Myzus persicae); assay: Myzus persicae spray test (bell pepper plants); type: in vivo; conditions: after 6 days
Experimental: Myzus persicae—Spray Test
Solvent: 14 parts by weight of dimethylformamide
as §2
as §3, with “water. If the addition of ammonium salts and/or penetrants is required, these are each added in a concentration of 1000 ppm to the formulation solution.” for “water.”
Bell pepper plants (Capsicum annuum) severely infested with the green peach aphid (Myzus persicae) are treated by spraying with the active compound preparation in the desired concentration.
After 6 days, the kill in % is determined. 100% means that all of the aphids have been killed; 0% means that none of the aphids have been killed.

[6] = tested on: green peach aphid (Myzus persicae); assay: Myzus persicae spray test (Chinese cabbage leaf discs); type: in vivo; conditions: after 5 or 6 days, Chinese cabbage leaf discs
How it was run: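 Compound is taken up in acetone/DMF and made up with emulsifier-containing water (1000 ppm), then sprayed onto aphid-infested cabbage leaf discs. After 5 or 6 days, percent kill is determined (100% = all dead, 0% = none).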

[7] = tested on: greenhouse red spider mite (Tetranychus urticae); assay: Tetranychus urticae spray test, OP-resistant (bean leaf discs); type: in vivo; conditions: application rate 500 g/ha, after 6 days
Experimental: Tetranychus urticae—Spray Test, OP-Resistant
Solvent: 78.0 parts by weight of acetone • • 1.5 parts by weight of dimethylformamide
as §2, §3
Discs of bean leaves (Phaseolus vulgaris) infested with all stages of the greenhouse red spider mite (Tetranychus urticae) are sprayed with an active compound preparation of the desired concentration.
After 6 days, the efficacy in % is determined. 100% means that all the spider mites had been killed; 0% means that no spider mites had been killed.

[8] = tested on: larvae of the mustard beetle (Phaedon cochleariae); assay: Phaedon cochleariae spray test (Chinese cabbage leaf discs); type: in vivo; conditions: application rate 500 g/ha, after 7 days
Experimental: Phaedon cochleariae—Spray Test
as §1, §2, §3
After 7 days, the efficacy in % is determined. 100% means that all beetle larvae were killed; 0% means that no beetle larvae were killed.

SMILES | logP[a] [4] | logP[b] [4] | % efficacy ([1]; 6 dat) | efficacy (aphids killed) ([6]; application rate 500 g/ha) | % efficacy ([1]; 5 dat) | other results
O=C(Nc1cccnc1)c1c[nH]cn1 [Example 13] |  |  |  |  |  | pest or weed control at 100 g/ha ([1]; 6 dat): 0%; % efficacy [2]: 0%; % efficacy [3]: 0%
Cc1nc(C(=O)Nc2cccnc2)c[nH]1 [Example 14] |  |  |  |  |  | pest or weed control at 100 g/ha ([1]; 6 dat): 0%; % efficacy [2]: 0%; % efficacy [3]: 0%
CCCCCSc1ncc(C(=O)N(C)c2cccnc2)n1C [I-A-6] | 2.03 | 2.33 | 90% | 90% |  | efficacy (spider mites killed) [7]: 90%; % efficacy [2]: 90%
CON=C(C)CSc1ncc(C(=O)N(C)c2cccnc2)n1C [I-A-39] | 1.13 | 1.37 and 1.45 |  | 90% |  | % efficacy [2]: 70%
CN(C(=O)c1cnc(S(=O)(=O)c2cc(Cl)cc(Cl)c2)n1C)c1cccnc1 [I-A-78] | 2.37 | 2.53 | 90% |  |  | efficacy (aphids killed) ([6]; application rate 100 g/ha): 90%; efficacy (spider mites killed) [7]: 90%; % efficacy [2]: 90%
CN(C(=O)c1cnc(S(=O)(=O)c2ccc(Cl)c(C(F)(F)F)c2)n1C)c1cccnc1 [I-A-80] | 2.56 | 2.72 |  |  |  | efficacy (beetle larvae killed) [8]: 100%; % efficacy [3]: 100%
CN(C(=O)c1cnc([S+]([O-])c2ccc([N+](=O)[O-])cc2)n1C)c1cccnc1 (stereo not drawn) [I-A-89] | 1.20 | 1.38 | 70% |  |  | efficacy (kill of aphids) ([5]; application rate 20 ppm): 99%
CN(C(=O)c1cnc(S(=O)(=O)c2ncccn2)n1C)c1cccnc1 [I-A-99] | 0.66 | 0.87 | 70% |  |  | efficacy (kill of aphids) ([5]; application rate 20 ppm): 100%
CN(C(=O)c1cnc(Sc2ncc(C(F)(F)F)cn2)n1C)c1cccnc1 [I-A-105] | 1.64 | 1.73 | 100% | 100% |  | efficacy (spider mites killed) [7]: 90%; % efficacy [2]: 90%
CN(C(=O)c1cnc(Sc2ncc(F)cn2)n1C)c1cccnc1 [I-A-107] | 1.04 | 1.20 | 90% | 90% |  | % efficacy [2]: 70%
CN(C(=O)c1cnc(Sc2ncccc2C(F)(F)F)n1C)c1cccnc1 [I-A-110] | 1.77 | 1.93 | 100% | 100% |  | % efficacy [2]: 70%
CN(C(=O)c1cnc(SCc2c(Cl)cccc2Cl)n1C)c1cccnc1 [I-A-125] | 2.09 | 2.28 | 70% | 90% |  | % efficacy [2]: 70%
COc1cc(OC)nc(CSc2ncc(C(=O)N(C)c3cccnc3)n2C)n1 [I-A-128] | 1.41 | 1.68 | 90% | 90% |  | 
CN(C(=O)c1cnc(Sc2nc3ccccc3n2C)n1C)c1cccnc1 [I-A-134] | 1.27 | 1.56 |  | 100% | 100% | 
CCn1c(Sc2ncc(C(=O)N(C)c3cccnc3)n2C)nnc1C(F)(F)F [I-A-137] | 1.41 | 1.46 |  | 90% | 90% | 
CN(C(=O)c1cnc(Sc2nnc(C(F)(F)F)n2C)n1C)c1cccnc1 [I-A-138] | 1.12 | 1.26 |  | 100% | 90% | 
CN(C(=O)c1cnc(Sc2nnc(C(F)F)n2C)n1C)c1cccnc1 [I-A-139] | 0.87 | 1.00 |  | 100% | 90% | 
CN(C(=O)c1cnc(Sc2nccn2C)n1C)c1cccnc1 [I-A-144] |  | 0.86 |  | 100% | 90% | 
CN(C(=O)c1cn(C)c(Sc2ncccn2)n1)c1cccnc1 [I-B-1] |  |  |  |  |  | chromatographic logP ([4]; pH 2.7, acidic range, pH 2.7, 0.1% aqueous formic acid / acetonitrile, read-out: log P[a]): 0.42; chromatographic logP ([4]; pH 7.8, neutral range, pH 7.8, 0.001 molar aqueous ammonium hydrogencarbonate / acetonitrile, read-out: log P[n]): 0.83; pest or weed control at 500 g/ha ([6]; Myzus persicae, foliar, application rate 500 g/ha, read-out: efficacy (aphids killed)): 100%; pest or weed control at 100 g/ha ([1]; 6 dat): 90%

More lines, main results first:

logP[a] [4] | logP[b] [4] | SMILES | % efficacy ([1]; 6 dat) | efficacy (aphids killed) ([6]; application rate 500 g/ha) | % efficacy ([1]; 5 dat) | other results
1.55 | 1.97 | Cc1cc(C)nc(Sc2ncc(C(=O)Nc3cccnc3)n2C)n1 [I-A-4] | 70% |  |  | efficacy (kill of aphids) ([5]; application rate 20 ppm): 99%
1.24 | 1.34 | CN(C(=O)c1c(Cl)nc(Sc2ncccn2)n1C)c1cccnc1 [I-A-15] |  |  |  | efficacy (beetle larvae killed) [8]: 83%; % efficacy [3]: 83%
1.04 | 1.35 | COCCCSc1ncc(C(=O)N(C)c2cccnc2)n1C [I-A-20] |  |  |  | efficacy (kill of aphids) ([5]; application rate 20 ppm): 99%
0.80 | 1.30 | CCN(C(=O)c1cnc(SC)n1C)c1cccnc1 [I-A-44] |  |  |  | efficacy (kill of aphids) ([5]; application rate 20 ppm): 100%
2.02 | 2.14 | CN(C(=O)c1cnc(Sc2ccc(Cl)cc2)n1C)c1cccnc1 [I-A-57] |  |  |  | efficacy (kill of aphids) ([5]; application rate 20 ppm): 99%
1.97 | 2.11 | CN(C(=O)c1cnc(Sc2cccc(Cl)c2)n1C)c1cccnc1 [I-A-66] |  |  |  | efficacy (kill of aphids) ([5]; application rate 100 ppm): 99%
1.12 | 1.28 | COc1ccc([S+]([O-])c2ncc(C(=O)N(C)c3cccnc3)n2C)cc1 (stereo not drawn) [I-A-93] | 70% |  |  | efficacy (kill of aphids) ([5]; application rate 20 ppm): 95%
0.63 | 1.16 | CN(C(=O)c1cnc(SCc2ccccn2)n1C)c1cccnc1 [I-A-117] | 90% | 90% |  | 
1.37 | 1.58 | CN(C(=O)c1cnc(SCc2ccc(Cl)nc2)n1C)c1cccnc1 [I-A-122] | 90% | 100% |  | 
2.47 | 2.54 | CN(C(=O)c1cnc(SCc2c(Cl)cccc2C(F)(F)F)n1C)c1cccnc1 [I-A-126] | 70% | 100% |  | 
1.18 |  | CN(C(=O)c1cnc([S+]([O-])Cc2ccccc2)n1C)c1cccnc1 (stereo not drawn) [I-A-130] |  | 90% | 90% | 
0.62 | 0.89 | Cc1nnc(Sc2ncc(C(=O)N(C)c3cccnc3)n2C)o1 [I-A-135] |  | 100% | 90% | 
1.92 | 1.96 | CN(C(=O)c1cnc(Sc2nnc(-c3ccccc3)s2)n1C)c1cccnc1 [I-A-140] |  | 100% | 70% | 
1.39 | 1.84 | CN(C(=O)c1cnc(Sc2ncc(-c3ccccc3)n2C)n1C)c1cccnc1 [I-A-141] |  | 100% | 70% | 
1.31 | 1.47 | Cc1nc(Sc2ncc(C(=O)N(C)c3cccnc3)n2C)oc1C [I-A-142] |  | 90% | 90% | 
1.11 | 1.27 | CCn1c(C(=O)N(C)c2cccnc2)cnc1Sc1ncccn1 [I-A-146] |  |  | 90% | efficacy (aphids killed) ([6]; application rate 100 g/ha): 90%

Reference: patent US10368545B2, “Substituted 2-thioimidazolylcarboxamides as pesticides” (BAYER CROPSCIENCE AKTIENGESELLSCHAFT, priority 2015, dated 2019)
